Source: patent US11414413B2, “Heterocyclic compound as JAK inhibitor, and salts and therapeutic use thereof” (Suzhou Longbiotech Pharmaceuticals Co., Ltd., priority 2016, dated 2022)

Key:
Assay type in all cases: biochemical
JAK2 = JAK2 (Homo sapiens (Human), UniProt O60674); test: Inhibition of JAK2, luminescence kinase assay (ADP-Glo); settings: purified recombinant JAK2
Description: (§1) The study of the effect of compounds on the activity of purified recombinant JAK was performed by studying the inhibitory activity of the compounds on JAK from the enzymatic level. The experimental principle is to use a luminescence kinase assay to detect the ADP content produced by the reaction of JAK with the substrate Poly (4:1 Glu, Tyr) peptide: after ADP is converted to ATP, ATP can act as a substrate for the Ultra-Glo luciferase catalytic reaction, producing an optical signal. The luminescence signal is positively correlated with the amount of ADP and kinase activity. Therefore, the inhibitory effect of the compounds on the recombinant JAK was determined by observing the luminescence signal produced by the reaction of JAK and the substrate, and was expressed by IC50.
(§2) Experimental method: 10 different concentrations of compounds were incubated with JAK1, JAK2 and JAK3, respectively, for 60 minutes at 37° C. The substrate and ATP were then added, mixed, and reacted at 37° C. for 50 minutes. 25 μl of ADP-Glo™ was added and mixed for 2 minutes. The reaction was carried out for 50 minutes at room temperature. Further, 50 μl of the detection reagent was added and mixed for 2 minutes, and incubated at room temperature for 50 minutes, and detected by a chemiluminometer.

JAK1 = JAK1 (Homo sapiens (Human), UniProt P23458); test: Inhibition of JAK1, luminescence kinase assay (ADP-Glo); settings: purified recombinant JAK1
Sequence of JAK1 (P23458 whole entry): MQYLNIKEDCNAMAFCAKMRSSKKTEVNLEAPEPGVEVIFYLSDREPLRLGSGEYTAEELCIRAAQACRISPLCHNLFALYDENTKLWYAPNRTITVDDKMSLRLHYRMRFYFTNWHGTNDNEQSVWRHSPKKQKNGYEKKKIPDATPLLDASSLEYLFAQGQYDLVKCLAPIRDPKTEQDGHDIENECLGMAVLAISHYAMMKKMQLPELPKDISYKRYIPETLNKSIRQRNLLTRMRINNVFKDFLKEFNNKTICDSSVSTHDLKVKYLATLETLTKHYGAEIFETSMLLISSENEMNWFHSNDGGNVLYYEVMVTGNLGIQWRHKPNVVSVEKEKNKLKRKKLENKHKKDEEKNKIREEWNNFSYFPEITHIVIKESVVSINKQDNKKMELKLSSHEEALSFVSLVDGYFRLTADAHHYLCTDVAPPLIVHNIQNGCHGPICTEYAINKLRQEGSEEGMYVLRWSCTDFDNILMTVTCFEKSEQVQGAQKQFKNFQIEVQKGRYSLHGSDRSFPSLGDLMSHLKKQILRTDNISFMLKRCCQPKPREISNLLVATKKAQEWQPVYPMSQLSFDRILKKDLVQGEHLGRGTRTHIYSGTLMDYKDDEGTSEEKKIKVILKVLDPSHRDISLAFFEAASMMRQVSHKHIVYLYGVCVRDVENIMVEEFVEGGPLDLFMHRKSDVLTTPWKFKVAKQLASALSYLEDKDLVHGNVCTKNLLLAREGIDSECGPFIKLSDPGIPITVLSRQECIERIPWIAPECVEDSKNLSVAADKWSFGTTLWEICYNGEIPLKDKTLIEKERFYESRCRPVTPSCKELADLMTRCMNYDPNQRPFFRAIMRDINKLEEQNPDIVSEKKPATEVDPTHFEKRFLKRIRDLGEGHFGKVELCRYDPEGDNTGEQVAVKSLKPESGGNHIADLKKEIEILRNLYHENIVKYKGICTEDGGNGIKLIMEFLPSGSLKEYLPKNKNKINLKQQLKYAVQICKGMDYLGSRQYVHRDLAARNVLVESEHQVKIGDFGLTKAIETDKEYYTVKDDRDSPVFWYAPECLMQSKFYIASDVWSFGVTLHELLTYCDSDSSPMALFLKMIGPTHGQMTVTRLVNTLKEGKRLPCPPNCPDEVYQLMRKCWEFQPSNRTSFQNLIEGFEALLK
Description: as §1, §2

JAK3 = JAK3 (Homo sapiens (Human), UniProt P52333); test: Inhibition of JAK3, luminescence kinase assay (ADP-Glo); settings: purified recombinant JAK3
Sequence of JAK3 (P52333 whole entry): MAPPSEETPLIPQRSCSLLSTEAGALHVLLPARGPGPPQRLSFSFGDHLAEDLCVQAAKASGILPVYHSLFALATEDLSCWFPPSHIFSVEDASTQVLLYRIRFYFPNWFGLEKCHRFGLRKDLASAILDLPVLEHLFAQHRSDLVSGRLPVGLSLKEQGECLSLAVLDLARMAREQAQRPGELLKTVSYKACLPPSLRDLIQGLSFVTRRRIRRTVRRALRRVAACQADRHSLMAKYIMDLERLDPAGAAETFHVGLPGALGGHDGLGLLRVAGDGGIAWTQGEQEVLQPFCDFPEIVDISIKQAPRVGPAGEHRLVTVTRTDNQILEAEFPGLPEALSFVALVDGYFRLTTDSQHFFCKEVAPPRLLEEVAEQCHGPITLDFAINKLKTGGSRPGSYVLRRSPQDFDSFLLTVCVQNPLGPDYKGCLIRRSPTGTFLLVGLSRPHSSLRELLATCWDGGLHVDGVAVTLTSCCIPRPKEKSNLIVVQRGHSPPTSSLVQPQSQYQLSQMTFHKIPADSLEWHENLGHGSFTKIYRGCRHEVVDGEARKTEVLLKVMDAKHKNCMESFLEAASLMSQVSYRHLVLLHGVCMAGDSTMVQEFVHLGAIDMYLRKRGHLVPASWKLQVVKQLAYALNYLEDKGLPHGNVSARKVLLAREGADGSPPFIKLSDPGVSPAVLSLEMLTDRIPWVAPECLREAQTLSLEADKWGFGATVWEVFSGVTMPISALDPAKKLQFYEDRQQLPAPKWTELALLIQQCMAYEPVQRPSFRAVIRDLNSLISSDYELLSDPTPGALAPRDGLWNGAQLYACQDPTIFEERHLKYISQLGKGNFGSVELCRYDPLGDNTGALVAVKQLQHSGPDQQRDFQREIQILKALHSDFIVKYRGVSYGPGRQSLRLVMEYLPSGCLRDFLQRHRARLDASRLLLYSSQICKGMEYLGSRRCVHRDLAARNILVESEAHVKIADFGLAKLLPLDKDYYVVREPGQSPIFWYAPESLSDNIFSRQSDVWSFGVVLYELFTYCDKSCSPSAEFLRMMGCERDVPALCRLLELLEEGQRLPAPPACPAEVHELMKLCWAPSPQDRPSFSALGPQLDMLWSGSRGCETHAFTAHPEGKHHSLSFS
Description: as §1, §2

Sequence of JAK2 (O60674 whole entry): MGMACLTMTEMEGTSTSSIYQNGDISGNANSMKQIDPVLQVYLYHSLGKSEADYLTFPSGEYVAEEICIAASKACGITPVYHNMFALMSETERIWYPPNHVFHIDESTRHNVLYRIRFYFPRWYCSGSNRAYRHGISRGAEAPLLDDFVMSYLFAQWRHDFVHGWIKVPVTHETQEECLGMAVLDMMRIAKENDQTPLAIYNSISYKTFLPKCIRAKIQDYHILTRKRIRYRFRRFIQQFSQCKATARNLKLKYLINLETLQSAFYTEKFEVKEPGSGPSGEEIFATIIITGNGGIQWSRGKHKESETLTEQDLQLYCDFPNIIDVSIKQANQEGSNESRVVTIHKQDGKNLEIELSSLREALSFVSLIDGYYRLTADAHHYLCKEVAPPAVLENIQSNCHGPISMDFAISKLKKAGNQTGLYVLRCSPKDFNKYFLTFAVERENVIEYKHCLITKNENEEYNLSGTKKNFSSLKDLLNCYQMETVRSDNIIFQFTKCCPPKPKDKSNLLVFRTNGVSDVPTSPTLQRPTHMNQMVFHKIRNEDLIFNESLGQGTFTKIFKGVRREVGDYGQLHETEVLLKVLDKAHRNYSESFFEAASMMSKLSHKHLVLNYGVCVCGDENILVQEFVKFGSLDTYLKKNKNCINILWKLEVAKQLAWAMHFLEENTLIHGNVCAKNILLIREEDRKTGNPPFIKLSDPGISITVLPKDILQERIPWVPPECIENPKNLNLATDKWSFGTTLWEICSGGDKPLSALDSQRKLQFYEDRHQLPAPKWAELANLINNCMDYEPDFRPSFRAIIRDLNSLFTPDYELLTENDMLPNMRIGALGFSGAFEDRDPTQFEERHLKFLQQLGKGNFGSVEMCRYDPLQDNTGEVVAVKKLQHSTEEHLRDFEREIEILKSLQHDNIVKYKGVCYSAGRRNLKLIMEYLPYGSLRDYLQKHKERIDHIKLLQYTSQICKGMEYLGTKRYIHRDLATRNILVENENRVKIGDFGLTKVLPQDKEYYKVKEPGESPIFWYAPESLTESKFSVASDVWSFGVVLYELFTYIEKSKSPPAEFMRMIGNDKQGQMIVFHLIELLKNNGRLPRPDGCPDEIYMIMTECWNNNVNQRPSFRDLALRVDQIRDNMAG

An IC50 (JAK2) of 20 to 50 nM was found for `CCS(=O)(=O)N1CC(CC#N)(n2cc(-c3c[nH]c4ncccc34)cn2)C1` [Example 1, 2-(3-(4-(1H-pyrrolo[2,3-b]pyridin-3-yl)-1H-pyrazol-1-yl)-1-(ethylsulfonyl)azetidin-3-yl)acetonitrile] in this work.

An IC50 (JAK1) of under 20 nM, an IC50 (JAK2) of 20 to 50 nM and an IC50 (JAK3) of over 50 nM were found for `N#CCC1(n2cc(-c3c[nH]c4ncccc34)cn2)CCS(=O)(=O)CC1` [Example 2, 2-(4-(4-(1H-pyrrolo[2,3-b]pyridin-3-yl)-1H-pyrazol-1-yl)-1,1-dioxotetrahydro-2H-thiopyran-4-yl)acetonitrile] in this work.

An IC50 (JAK1) of under 20 nM, an IC50 (JAK2) of under 20 nM and an IC50 (JAK3) of over 50 nM were found for `N#CCC1(n2cc(-c3ccnc4[nH]ccc34)cn2)CCS(=O)(=O)CC1` [Example 4, 2-(4-(4-(1H-pyrrolo[2,3-b]pyridin-4-yl)-1H-pyrazol-1-yl)-1,1-dioxotetrahydro-2H-thiopyran-4-yl)acetonitrile] in this work.

An IC50 (JAK1) of under 20 nM and an IC50 (JAK3) of under 20 nM were found for `CS(=O)(=O)N1CCC(CC#N)(n2cc(-c3c[nH]c4ncccc34)cn2)CC1` [Example 5] in this work.

An IC50 (JAK1) of over 50 nM, an IC50 (JAK2) of over 50 nM and an IC50 (JAK3) of over 50 nM were found for `CCS(=O)(=O)N1CC(CC(N)=O)(n2cc(-c3c[nH]c4ncccc34)cn2)C1` [Example 6, 2-(3-(4-(1H-pyrrolo[2,3-b]pyridin-3-yl)-1H-pyrazol-1-yl)-1-(ethylsulfonyl)azetidin-3-yl)acetamide] in this work.

An IC50 (JAK1) of over 50 nM, an IC50 (JAK2) of over 50 nM and an IC50 (JAK3) of over 50 nM were found for `CCS(=O)(=O)N1CC(CC(=O)NCC(F)(F)F)(n2cc(-c3c[nH]c4ncccc34)cn2)C1` [Example 7, 2-(3-(4-(1H-pyrrolo[2,3-b]pyridin-3-yl)-1H-pyrazol-1-yl)-1-(ethylsulfonyl)azetidin-3-yl)-N-(2,2,2-trifluoroethyl)acetamide] in this work.

An IC50 (JAK1) of over 50 nM, an IC50 (JAK2) of over 50 nM and an IC50 (JAK3) of over 50 nM were found for `CCS(=O)(=O)N1CC(CC(=O)NCC(F)(F)F)(n2cc(-c3ncnc4[nH]ccc34)cn2)C1` [Example 8, 2-(3-(4-(1H-pyrrolo[2,3-d]pyrimidin-4-yl)-1H-pyrazol-1-yl)-1-(ethylsulfonyl)azetidin-3-yl)-N-(2,2,2-trifluoroethyl)acetamide] in this work.

An IC50 (JAK1) of over 50 nM, an IC50 (JAK2) of over 50 nM and an IC50 (JAK3) of over 50 nM were found for `CCS(=O)(=O)N1CC(CC(=O)NCC(F)(F)F)(n2cc(-c3ccnc4[nH]ccc34)cn2)C1` [Example 9, 2-(3-(4-(1H-pyrrolo[2,3-b]pyridin-4-yl)-1H-pyrazol-1-yl)-1-(ethylsulfonyl)azetidin-3-yl)-N-(2,2,2-trifluoroethyl)acetamide] in this work.

An IC50 (JAK1) of over 50 nM, an IC50 (JAK2) of over 50 nM and an IC50 (JAK3) of over 50 nM were found for `CCS(=O)(=O)N1CC(CC(=O)NC)(n2cc(-c3ccnc4[nH]ccc34)cn2)C1` [Example 10, 2-(3-(4-(1H-pyrrolo[2,3-b]pyridin-4-yl)-1H-pyrazol-1-yl)-1-(ethylsulfonyl)azetidin-3-yl)-N-methylacetamide] in this work.

An IC50 (JAK1) of over 50 nM, an IC50 (JAK2) of over 50 nM and an IC50 (JAK3) of over 50 nM were found for `CCS(=O)(=O)N1CC(CC(N)=O)(n2cc(-c3ccnc4[nH]ccc34)cn2)C1` [Example 11, 2-(3-(4-(1H-pyrrolo[2,3-b]pyridin-4-yl)-1H-pyrazol-1-yl)-1-(ethylsulfonyl)azetidin-3-yl)acetamide] in this work.

An IC50 (JAK1) of 20 to 50 nM, an IC50 (JAK2) of 20 to 50 nM and an IC50 (JAK3) of over 50 nM were found for `CS(=O)(=O)N1CC(CC(=O)NCC(F)(F)F)(n2cc(-c3ncnc4[nH]ccc34)cn2)C1` [Example 12, 2-(3-(4-(7H-pyrrolo[2,3-d]pyrimidin-4-yl)-1H-pyrazol-1-yl)-1-(methylsulfonyl)azetidin-3-yl)-N-(2,2,2-trifluoroethyl)acetamide] in this work.

An IC50 (JAK1) of over 50 nM, an IC50 (JAK2) of over 50 nM and an IC50 (JAK3) of over 50 nM were found for `CNC(=O)CC1(n2cc(-c3ncnc4[nH]ccc34)cn2)CN(S(C)(=O)=O)C1` [Example 13, 2-(3-(4-(7H-pyrrolo[2,3-d]pyrimidin-4-yl)-1H-pyrazol-1-yl)-1-(methylsulfonyl)azetidin-3-yl)-N-methylacetamide] in this work.

An IC50 (JAK1) of 20 to 50 nM, an IC50 (JAK2) of 20 to 50 nM and an IC50 (JAK3) of over 50 nM were found for `CS(=O)(=O)N1CC(CC(N)=O)(n2cc(-c3ncnc4[nH]ccc34)cn2)C1` [Example 14, 2-(3-(4-(7H-pyrrolo[2,3-d]pyrimidin-4-yl)-1H-pyrazol-1-yl)-1-(methylsulfonyl)azetidin-3-yl) acetamide] in this work.

An IC50 (JAK1) of under 20 nM, an IC50 (JAK2) of 20 to 50 nM and an IC50 (JAK3) of under 20 nM were found for `CS(=O)(=O)N1CC(CC(=O)NCC(F)(F)F)(n2cc(-c3ccnc4[nH]ccc34)cn2)C1` [Example 15, 2-(3-(4-(1H-pyrrolo[2,3-b]pyridin-4-yl)-1H-pyrazol-1-yl)-1-(methylsulfonyl)azetidin-3-yl)-N-(2,2,2-trifluoroethyl)acetamide] in this work.

An IC50 (JAK1) of under 20 nM, an IC50 (JAK2) of over 50 nM and an IC50 (JAK3) of under 20 nM were found for `NC(=O)CC1(n2cc(-c3c[nH]c4ncccc34)cn2)CCS(=O)(=O)CC1` [Example 18, 2-(4-(4-(1H-pyrrolo[2,3-b]pyridin-3-yl)-1H-pyrazol-1-yl)-1,1-dioxotetrahydro-2H-thiopyran-4-yl)acetamide] in this work.

An IC50 (JAK1) of 20 to 50 nM, an IC50 (JAK2) of over 50 nM and an IC50 (JAK3) of over 50 nM were found for `O=C(CC1(n2cc(-c3c[nH]c4ncccc34)cn2)CCS(=O)(=O)CC1)NCC(F)(F)F` [Example 19, 2-(4-(4-(1H-pyrrolo[2,3-b]pyridin-3-yl)-1H-pyrazol-1-yl)-1,1-dioxotetrahydro-2H-thiopyran-4-yl)-N-(2,2,2-trifluoroethyl)acetamide] in this work.

An IC50 (JAK1) of 20 to 50 nM, an IC50 (JAK2) of over 50 nM and an IC50 (JAK3) of over 50 nM were found for `O=C(CC1(n2cc(-c3ncnc4[nH]ccc34)cn2)CCS(=O)(=O)CC1)NCC(F)(F)F` [Example 20, 2-(4-(4-(7H-pyrrolo[2,3-d]pyrimidin-4-yl)-1H-pyrazol-1-yl)-1,1-dioxotetrahydro-2H-thiopyran-4-yl)-N-(2,2,2-trifluoroethyl)acetamide] in this work.

An IC50 (JAK1) of 20 to 50 nM, an IC50 (JAK2) of over 50 nM and an IC50 (JAK3) of over 50 nM were found for `O=C(CC1(n2cc(-c3ccnc4[nH]ccc34)cn2)CCS(=O)(=O)CC1)NCC(F)(F)F` [Example 21, 2-(4-(4-(7H-pyrrolo[2,3-b]pyridin-4-yl)-1H-pyrazol-1-yl)-1,1-dioxotetrahydro-2H-thiopyran-4-yl)-N-(2,2,2-trifluoroethyl)acetamide] in this work.

An IC50 (JAK1) of over 50 nM, an IC50 (JAK2) of over 50 nM and an IC50 (JAK3) of over 50 nM were found for `CS(=O)(=O)N1CCC(CC(=O)NCC(F)(F)F)(n2cc(-c3c[nH]c4ncccc34)cn2)CC1` [Example 22, 2-(4-(4-(7H-pyrrolo[2,3-b]pyridin-3-yl)-1H-pyrazol-1-yl)-1-(methylsulfonyl)piperidin-4-yl)-N-(2,2,2-trifluoroethyl)acetamide] in this work.

An IC50 (JAK1) of 20 to 50 nM, an IC50 (JAK2) of over 50 nM and an IC50 (JAK3) of over 50 nM were found for `CS(=O)(=O)N1CCC(CC(=O)NCC(F)(F)F)(n2cc(-c3ncnc4[nH]ccc34)cn2)CC1` [Example 23, 2-(4-(4-(7H-pyrrolo[2,3-b]pyrimidin-4-yl)-1H-pyrazol-1-yl)-1-(methylsulfonyl)piperidin-4-yl)-N-(2,2,2-trifluoroethyl)acetamide] in this work.

An IC50 (JAK1) of 20 to 50 nM and an IC50 (JAK3) of 20 to 50 nM were found for `O=C(CC1(n2cc(-c3c[nH]c4ncccc34)cn2)CCCC1)NCC(F)(F)F` [Example 25, 2-(1-(4-(1H-pyrrolo[2,3-b]pyridin-3-yl)-1H-pyrazol-1-yl)cyclopentyl)-N-(2,2,2-trifluoroethyl) acetamide] in this work.

An IC50 (JAK1) of 20 to 50 nM was found for `O=C(CC1(n2cc(-c3ncnc4[nH]ccc34)cn2)CCCC1)NCC(F)(F)F` [Example 26, 2-(1-(4-(1H-pyrrolo[2,3-b]pyrimidin-4-yl)-1H-pyrazol-1-yl)cyclopentyl)-N-(2,2,2-trifluoroethyl)acetamide] in this work.

An IC50 (JAK1) of over 50 nM and an IC50 (JAK2) of over 50 nM were found for `CS(=O)(=O)N1CC(Nc2ccnc(-c3c[nH]c4ncccc34)n2)(C(=O)NCC(F)(F)F)C1` [Example 31, 3-((2-(1H-pyrrolo[2,3-b]pyridin-3-yl)pyrimidin-4-yl)amino)-1-(methylsulfonyl)-N-(2,2,2-trifluoroethyl)azetidin-3-carboxamide] in this work.

An IC50 (JAK1) of over 50 nM and an IC50 (JAK2) of over 50 nM were found for `CCS(=O)(=O)N1CC(Nc2ccnc(-c3c[nH]c4ncccc34)n2)(C(=O)NCC(F)(F)F)C1` [Example 32, 3-((2-(1H-pyrrolo[2,3-b]pyridin-3-yl)pyrimidin-4-yl)amino)-1-(ethylsulfonyl)-N-(2,2,2-trifluoroethyl)azetidin-3-carboxamide] in this work.

An IC50 (JAK1) of over 50 nM and an IC50 (JAK2) of over 50 nM were found for `CS(=O)(=O)N1CC(Nc2nc(-c3c[nH]c4ncccc34)ncc2F)(C(=O)NCC(F)(F)F)C1` [Example 34] in this work.

An IC50 (JAK3) of 20 to 50 nM was found for `CCS(=O)(=O)N1CCC(Nc2ccnc(-c3c[nH]c4ncccc34)n2)(C(=O)NCC(F)(F)F)CC1` [Example 38, 4-((2-(1H-pyrrolo[2,3-b]pyridin-3-yl)pyrimidin-4-yl)amino)-1-(ethylsulfonyl)-N-(2,2,2-trifluoroethyl)piperidin-4-carboxamide] in this work.

An IC50 (JAK1) of over 50 nM and an IC50 (JAK2) of 20 to 50 nM were found for `O=C(NCC(F)(F)F)C1(Nc2nc(-c3c[nH]c4ncccc34)ncc2F)CCS(=O)(=O)CC1` [Example 44, 4-((5-fluoro-2-(1H-pyrrolo[2,3-b]pyridin-3-yl)pyrimidin-4-yl)amino)-N-(2,2,2-trifluoroethyl)tetrahydro-2H-thiopyran-4-carboxamide 1,1-dioxide] in this work.

An IC50 (JAK3) of 20 to 50 nM was found for `CCS(=O)(=O)N1CC(C#N)(Nc2ccnc(-c3ccnc4[nH]ccc34)n2)C1` [Example 47, 3-((2-(1H-pyrrolo[2,3-b]pyridin-4-yl)pyrimidin-4-yl)amino)-1-(ethylsulfonyl)azetidine-3-carbonitrile] in this work.
